{"source": "paper PMC10033663", "about": "“Acute pharmacological profile of 2C-B-Fly-NBOMe in male Wistar rats—pharmacokinetics, effects on behaviour and thermoregulation” (Frontiers in Pharmacology, 2023)", "origin": "cited, not measured here", "key": {"[1]": {"system": "mice", "set-up": "method as in Halberstadt, 2017", "settings": "ref Halberstadt, 2017, cited from earlier work; for locomotion: mice"}, "[2]": {"set-up": "method as in Gatch et al., 2017; Wojtas et al., 2021", "settings": "administered i. p.; ref Gatch et al., 2017; Wojtas et al., 2021; cited from earlier work"}, "[3]": {"system": "rats", "set-up": "method as in Miliano et al. (2019)", "settings": "ref Miliano et al. (2019), cited from earlier work"}, "[4]": {"system": "rats", "settings": "0.5 mg/kg i. p.; female and male rats; ref Miliano et al. (2019); cited from earlier work"}, "[5]": {"set-up": "method as in ref Adams and Geyer, 1982; Páleníček et al., 2013; Páleníček et al., 2008", "settings": "ref Adams and Geyer, 1982, Páleníček et al., 2013, 2008; cited from earlier work"}, "[6]": {"system": "rats", "set-up": "method as in Nakamura et al., 2018", "settings": "0.25 intraperitoneally (i. p.), ambient temperature 29°C, ref Nakamura et al., 2018; cited from earlier work"}, "[7]": {"settings": "rat blood serum; 1 mg/kg, peroral administration; ref Baralla et al. (2019); cited from earlier work"}, "[8]": {"set-up": "method as in ref Šíchová et al., 2022", "settings": "5 mg/kg, ref Šíchová et al., 2022, cited from earlier work"}, "[9]": {"set-up": "method as in ref Šíchová et al., 2022", "settings": "compared with 2C-B-Fly-NBOMe; ref Šíchová et al., 2022; cited from earlier work"}, "[10]": {"set-up": "method as in ref Šíchová et al., 2022", "settings": "ref Šíchová et al., 2022; cited from earlier work"}, "[11]": {"set-up": "method as in ref Šíchová et al., 2022", "settings": "5 mg/kg; individually-housed animals; ref Šíchová et al., 2022; cited from earlier work"}, "[12]": {"settings": "50 mg/kg s. c., ref Rohanová et al., 2008, cited from earlier work"}, "[13]": {"system": "rats", "set-up": "method as in Halberstadt and Geyer, 2017", "settings": "ref Halberstadt and Geyer, 2017; cited from earlier work"}}, "note": "Read-outs that look alike come from different tables or passages of the source.", "data": [{"smiles": "COc1cc(CCNCc2ccccc2OC)c(OC)cc1I", "note": "[25I-NBOMe, 2-(4-iodo-2,5-dimethoxyphenyl)-N-[(2-methoxyphenyl)methyl]ethanamine]", "values": [{"measurement": "locomotion", "setting": "[1]; 0.1 mg/kg s. c., 60 min temporal onset", "value": "significant hyperlocomotion"}, {"measurement": "locomotion", "setting": "[1]; 3 mg/kg s. c.", "value": "hypolocomotion"}, {"measurement": "biphasic effect on locomotion by route", "setting": "[1]; s. c. versus i. p.", "value": "induced a biphasic effect after s. c. application, but interestingly not after i. p. injection"}, {"measurement": "locomotor activity", "setting": "[2]", "value": "dose-dependent decrease in locomotor activity"}, {"measurement": "ASR", "setting": "[3]; highest dose (1 mg/kg i. p.)", "value": "significant decrease of ASR"}, {"measurement": "PPI", "setting": "[3]", "value": "dose-dependent inhibition of PPI"}, {"measurement": "body temperature", "setting": "[4]", "value": "induced hyperthermia within 35–65 min in female rats, but not in males"}]}, {"smiles": "COc1cc(CCN)cc(OC)c1OC", "note": "[mescaline]", "values": [{"measurement": "biphasic effect (low and high doses, temporal onsets)", "setting": "[5]", "value": "biphasic effect"}]}, {"smiles": "CCN(CC)C(=O)[C@@H]1C=C2c3cccc4[nH]cc(c34)C[C@H]2N(C)C1", "note": "[LSD, lysergic acid diethylamide]", "values": [{"measurement": "biphasic effect (low and high doses, temporal onsets)", "setting": "[5]", "value": "biphasic effect"}]}, {"smiles": "COc1cc(CCNCc2ccccc2OC)c(OC)cc1Br", "note": "[25B-NBOMe]", "values": [{"measurement": "locomotor activity", "setting": "[2]", "value": "dose-dependent decrease in locomotor activity"}, {"measurement": "body temperature", "setting": "[6]", "value": "hyperthermia, but only in higher ambient temperature"}]}, {"smiles": "NCCc1c2c(cc3c1OCC3)OCC2", "note": "[2C-FLY, 2-(2,3,6,7-tetrahydrofuro [2,3-f][1]benzofuran-4-yl)ethanamine]", "values": [{"measurement": "time of peak concentration", "setting": "[7]", "value": 60, "unit": "min"}]}, {"smiles": "COc1cc(CCNCc2ccccc2OC)c(OC)cc1C#N", "note": "[25CN-NBOMe]", "values": [{"measurement": "half-life", "setting": "[8]; blood serum", "value": 1.88, "unit": "h"}, {"measurement": "half-life", "setting": "[8]; brain tissue", "value": 2.28, "unit": "h"}, {"measurement": "locomotion", "setting": "[9]", "value": "similar, yet less pronounced decrease in locomotion"}, {"measurement": "PPI", "setting": "[10]", "value": "affected PPI only in the highest dose of 5 mg/kg in the 15 min onset"}, {"measurement": "body temperature", "setting": "[11]", "value": "significant hypothermic effect"}]}, {"smiles": "COc1cc(CCNCc2ccccc2OC)c(OC)cc1Cl", "note": "[25C-NBOMe]", "values": [{"measurement": "locomotor activity", "setting": "[2]", "value": "dose-dependent decrease in locomotor activity"}]}, {"smiles": "COc1cc(CCN)c(OC)cc1Br", "note": "[2C-B, 4-Bromo-2,5-dimethoxyphenethylamine]", "values": [{"measurement": "biphasic effect (low and high doses, temporal onsets)", "setting": "[5]", "value": "biphasic effect"}, {"measurement": "time for which presence was detectable", "setting": "[12]; all collected tissues", "value": "up to 5 h"}, {"measurement": "time of peak concentration", "setting": "[12]; blood serum", "value": "≤ 30", "unit": "min"}, {"measurement": "time of peak concentration", "setting": "[12]; brain, liver, and lung tissue", "value": "≤ 60", "unit": "min"}]}, {"smiles": "COc1cc(CCNCc2ccccc2O)c(OC)cc1C#N", "note": "[25CN-NBOH]", "values": [{"measurement": "PPI", "setting": "[13]", "value": "tendencies to disrupt PPI"}]}, {"smiles": "CC(N)Cc1c2c(cc3c1OCC3)OCC2", "note": "(stereo not drawn) [FLY, 1-(2,3,6,7-tetra-hydrofuro [2,3-f][1]benzofuran-4-yl)propan-2-amine]", "values": [{"measurement": "time of peak concentration", "setting": "[7]", "value": 30, "unit": "min"}]}]}
